Tests used:
[1] = target: SARS-CoV-2 M^pro (Severe acute respiratory syndrome coronavirus 2, UniProt P0DTD1); experiment: biochemical; format: biochemical; conditions: for IC50: IC50, inhibition of SARS-CoV-2 Mpro, kinetic assay, 100 nM Mpro, triplicate, footnote a: fluorescence of compound interfered with assay
[2] = system: noninfectious SARS-CoV-2 replicon; format: cell-based; conditions: 5 in combination with remdesivir, MacSynergy II
[3] = system: infectious SARS-CoV-2; format: cell-based
[4] = system: infectious SARS-CoV-2; experiment: MTT antiviral assay: protection against viral cytopathic effect in Vero E6 cells; format: cell-based
[5] = system: normal human bronchial epithelial cells (NHBE); conditions: MTT
[6] = system: Vero E6 cells; conditions: MTT, no virus

Compound: N#Cc1ccccc1-c1cc(-c2cccc(Cl)c2)c(=O)n(-c2cccnc2)c1 [Compound 2]
- IC50 [1]: 9.99 ± 2.5 µM

Compound: O=c1[nH]cc(-c2cc(-c3cccc(Cl)c3)c(=O)n(-c3cccnc3)c2)c(=O)[nH]1 [Compound 3]
- IC50 [1]: 6.38 ± 1.21 µM

Compound: N#Cc1ccccc1-c1cc(-c2cc(Cl)cc(Cl)c2)c(=O)n(-c2cccnc2)c1 [Compound 4]
- factor of enhancement in inhibitory activity ([1]; 4 vs 2, addition of second chlorine): ~2
- IC50 [1]: 4.02 ± 1.36 µM

Compound: CCCOc1cc(Cl)cc(-c2cc(-c3ccccc3C#N)cn(-c3cccnc3)c2=O)c1 [Compound 5]
- antagonism volume [2]: 0 μM^2%
- mean synergy volume [2]: 30.8 μM^2%
- factor of improvement in potency ([1]; 5 over 4): ca. 30

Compound: O=c1[nH]cc(-c2cc(-c3cc(Cl)cc(OCc4ccccc4)c3)c(=O)n(-c3cccnc3)c2)c(=O)[nH]1 [Compound 14]
- EC50 Plaque [3]: antiviral activity was found
- EC50 MTT [4]: not in the MTT assay

Compound: O=c1[nH]cc(-c2cc(-c3cc(Cl)cc(OCc4ccccc4Cl)c3)c(=O)n(-c3cccnc3)c2)c(=O)[nH]1 [Compound 21]
- EC50 Plaque [3]: showed activity
- EC50 MTT [4]: lacked antiviral activity

Compound: O=c1[nH]cc(-c2cc(-c3cc(Cl)c(F)c(OCc4ccccc4Cl)c3)c(=O)n(-c3cccnc3)c2)c(=O)[nH]1 [Compound 23]
- EC50 Plaque [3]: showed activity
- EC50 MTT [4]: lacked antiviral activity

Compound: O=c1[nH]cc(-c2cc(-c3cc(Cl)cc(OCC4CC4)c3)c(=O)n(-c3cccnc3)c2)c(=O)[nH]1 [Compound 24]
- fold boost in potency ([1]; 24 vs 11, uracil series): 3

Compound: N#Cc1ccccc1-c1cc(-c2cc(Cl)cc(OCC3CC3)c2)c(=O)n(-c2cccnc2)c1 [Compound 26]
- CC50 NHBE [5]: no cytotoxicity
- CC50 Vero E6 [6]: no cytotoxicity

From article PMC7931627 (ACS Central Science, 2021)
